In patent US8192962B2, “Processes for detecting toxic substances” (Daikin Industries, Ltd., priority 2001, dated 2012):

Test system: Transport facilitation protein genes
Test: DNA chip mRNA expression in yeast, transport facilitation protein genes (Table 5)
Type: cell-based, Saccharomyces cerevisiae S288C
Method in brief: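 S. cerevisiae S288C grown at 25° C. in YPD to log phase, then exposed 2 h to a toxicant at a growth-inhibiting, non-lethal concentration; untreated cells as control. Poly(A) mRNA reverse-transcribed with Cy3-dUTP or Cy5-dUTP, hybridized >12 h at 65° C. to whole-genome yeast DNA chip; value = fluorescence ratio treated/untreated.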

Measured: The level of expressed mRNA in the presence of chemical substance/The level of expressed mRNA in the absence of chemical substance

O=[N+]([O-])c1cc[n+]([O-])c2ccccc12 [(5), 4-nitroquinolin-N-oxide]
0.9: yeast gene YCL025C | yeast gene YCR024C-A | yeast gene YDL210W | yeast gene YDR038C | yeast gene YDR387C | yeast gene YGR082W | yeast gene YHL035C | yeast gene YHR175W | yeast gene YJR077C | yeast gene YJR106W | yeast gene YLL028W | yeast gene YLR348C | yeast gene YMR011W | yeast gene YMR162C | yeast gene YNL055C | yeast gene YOL163W | yeast gene YOR332W | yeast gene YOR348C
1.1: yeast gene YHL040C | yeast gene YHR026W | yeast gene YHR094C | yeast gene YNL259C | yeast gene YOR273C
0.7: yeast gene YBL030C | yeast gene YDL198C | yeast gene YDR497C | yeast gene YGR197C
1.2: yeast gene YCL038C | yeast gene YEL063C | yeast gene YFL041W | yeast gene YGL167C | yeast gene YGR065C | yeast gene YGR096W | yeast gene YHL047C | yeast gene YIL056W | yeast gene YJL034W | yeast gene YJL212C | yeast gene YJL219W | yeast gene YOL156W | yeast gene YPR192W
1.4: yeast gene YBR052C | yeast gene YBR068C | yeast gene YBR127C | yeast gene YBR294W | yeast gene YBR298C | yeast gene YCR098C | yeast gene YEL065W | yeast gene YGL255W | yeast gene YGR224W | yeast gene YHR092C | yeast gene YPL134C | yeast gene YPL271W
1.8: yeast gene YOR130C
1.6: yeast gene YDR342C | yeast gene YIL088C
1.0: yeast gene YBL099W | yeast gene YDL128W | yeast gene YDR086C | yeast gene YDR270W | yeast gene YEL027W | yeast gene YFL050C | yeast gene YGL006W | yeast gene YGL104C | yeast gene YKL146W | yeast gene YKR039W | yeast gene YLR081W | yeast gene YLR378C | yeast gene YNR072W | yeast gene YOR035C | yeast gene YOR153W | yeast gene YOR316C | yeast gene YOR328W | yeast gene YPL265W
2.0: yeast gene YPR124W
1.3: yeast gene YCR037C | yeast gene YDL245C | yeast gene YDR039C | yeast gene YDR298C | yeast gene YDR343C | yeast gene YDR345C | yeast gene YFL011W | yeast gene YFL054C | yeast gene YGR055W | yeast gene YKR067W | yeast gene YPL036W | yeast gene YPR194C
2.2: yeast gene YLR295C
0.6: yeast gene YER053C | yeast gene YGR281W | yeast gene YMR203W
0.8: yeast gene YBR132C | yeast gene YBR293W | yeast gene YBR295W | yeast gene YGL008C | yeast gene YGR138C | yeast gene YGR191W | yeast gene YGR260W | yeast gene YIL006W | yeast gene YIL022W | yeast gene YJR121W | yeast gene YOR270C
1.5: yeast gene YKL016C | yeast gene YOL119C
1.7: yeast gene YBR207W
